Test results from patent US20050107394A1, “Novel use of selective pde5 inhibitors” (priority 2001, published 2005).

Test system: rabbits
Experiment: Lung damage after inhaled bleomycin (characterisation of the model)
Type: in vivo, rabbit
Text: Healthy rabbits of both sexes were pretreated orally with a gyrase inhibitor (Baytril®) for one week. Ten animals pretreated in this way were not treated with bleomyin and served as control, and, on the day of exposure, the others were anaesthetized with a Ketanest®/Rompun® mixture, intubated intratracheally and ventilated mechanically. An ultrasonic nebulizer (MMAD 2.5 μm) was used to administer by inhalation exactly 1.8 U/kg of bodyweight of bleomycin under volume-controlled ventilation. After 4, 8, 16, 24, 32 and 64 days (in each case n≧5) post exposure, the animals were again anaesthetized, provided with an arterial access (right carotid artery) and underwent bodyweight-adapted ventilation via a tracheostomy in a volume-controlled method. The arterial pO2 and pCO2, and the static compliance of the lung were measured (by recording the intrathoracic pressure and with slow inflation/deflation manoeuvres). Subsequently, the lungs of these animals were dissected and perfused with a Krebs Hensefeit buffer. Under these conditions, the capillary filtraton coefficient (cfc) was then found from the weight gain of the organ after increasing the pulmonary venous pressure by 7.5 mmHg, and the peak ventilation pressure was found. After completion of these measurements, the left main bronchus was ligated in the end-inspiratory position and a bronchoalveolar lavage (BAL) was performed on the right lung. Subsequently, the large vessels and airways of the right lung were dissected off and the organ was homogenized. The left lung was perfusion-fixed with 4% formalin solution while maintaining a pressure gradient of 25 cm H2O and was then stored in 4% formalin until embedded. Firstly, the cells were removed from the BAL, counted and differentiated via a Papenheim stain. The cell-free BAL supernatant was then aliquoted and submitted to further analysis of the surfactant and coagulation properties and a determination of the matrix metallo proteinases (MMPs) and their inhibitors (TIMPs) and of soluble collagen. Bronchoalveolar deposition of 1.8 U/kg of bodyweight of bleomycin led initially to development of an ARDS-like event, with a massive restriction of gas exchange (paO2/FiO2 of >500 mmHg in the controls reduced to ˜110 mmHg on day 4), ground-glass opacities over all sections of the lung in the HRCT and an increase of about 5-fold in the capillary filtration coefficient (cfc). In the later phase of bleomycin-induced lung damage there was then development of pronounced fibrosis which could be confirmed on the basis of the increase in soluble collagen in the BAL and the hydroxyproline in the tissue, on the basis of the histological specimens and of the HRCT findings. […] Consistent with this, a pronounced increase in the extracellular matrix and an alveolar and also interstitial ingress of fibroblasts was observable in the histological sections. Besides the homogeneously distributed zones of fibrosis there were also thin hyperdistended sections of lung with a honeycomb appearance.

Substance: bleomycin
- concentration of soluble collagen in the BAL (after 64 days): 7000 ± 2200 ng/mL
- paO2/FiO2 (day 4 after 1.8 U/kg bleomycin by inhalation, controls >500 mmHg): ~110 mmHg
- concentration of soluble collagen in the BAL (maximum) (day 16 after bleomycin, controls 1.1±0.4): 38300 ± 12500 ng/mL
- capillary filtration coefficient (cfc), increase (early phase after 1.8 U/kg bleomycin): about 5 fold
- hydroxyproline content of the tissue (from day 16 onwards): approximately doubled
